Experimental data: PMC4607728, “Effect of monovalent cations on the kinetics of hypoxic conformational change of mitochondrial complex I” (Biochimica et Biophysica Acta, 2015)

Legend:
[1] = target: T1, bovine mitochondrial complex I (proton-translocating NADH:ubiquinone oxidoreductase) (Bos taurus, UniProt P03887+P17694+P42026); experiment: rate constant of D-to-A activation from lag phase of NADH oxidation, SMP; format: biochemical; details: D-form of complex I; pH 7.0, SET buffer, no alkali cations; control without EIPA 1.00 ± 0.04 min^-1; 165 μM NADH
T1 construct: gene NDUFS2; with NADH-ubiquinone oxidoreductase chain 3; NADH dehydrogenase [ubiquinone]; 1 alpha subcomplex subunit 9, mitochondrial; NADH-ubiquinone oxidoreductase chain 2; NADH-ubiquinone oxidoreductase chain 4; NADH-ubiquinone oxidoreductase chain 4L; NADH-ubiquinone oxidoreductase chain 5; NADH-ubiquinone oxidoreductase chain 6; NADH-ubiquinone oxidoreductase 75 kDa subunit, mitochondrial; NADH dehydrogenase [ubiquinone] flavoprotein 1, mitochondrial; NADH dehydrogenase [ubiquinone] flavoprotein 2, mitochondrial; NADH dehydrogenase [ubiquinone] iron-sulfur protein 3, mitochondrial; NADH dehydrogenase [ubiquinone] iron-sulfur protein 8, mitochondrial
T1 sequence (P17694 34-463): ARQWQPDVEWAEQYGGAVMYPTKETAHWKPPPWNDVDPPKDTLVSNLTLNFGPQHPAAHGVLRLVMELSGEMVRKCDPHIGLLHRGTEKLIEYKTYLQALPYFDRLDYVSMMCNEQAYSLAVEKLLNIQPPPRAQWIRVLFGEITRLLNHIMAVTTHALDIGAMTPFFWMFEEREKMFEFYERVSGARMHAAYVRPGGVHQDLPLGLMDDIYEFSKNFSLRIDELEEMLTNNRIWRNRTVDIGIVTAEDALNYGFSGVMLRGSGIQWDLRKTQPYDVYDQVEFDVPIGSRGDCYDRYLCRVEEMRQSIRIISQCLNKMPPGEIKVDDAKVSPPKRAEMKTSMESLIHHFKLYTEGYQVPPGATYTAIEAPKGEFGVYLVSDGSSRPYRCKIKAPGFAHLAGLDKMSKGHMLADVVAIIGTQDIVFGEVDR
T1 sequence (P42026 38-216): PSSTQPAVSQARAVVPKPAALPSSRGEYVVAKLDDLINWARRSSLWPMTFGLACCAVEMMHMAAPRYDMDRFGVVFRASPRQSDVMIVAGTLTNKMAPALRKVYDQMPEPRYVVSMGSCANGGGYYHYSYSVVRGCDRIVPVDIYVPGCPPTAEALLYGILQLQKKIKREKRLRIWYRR
T1 sequence (P03887 whole entry): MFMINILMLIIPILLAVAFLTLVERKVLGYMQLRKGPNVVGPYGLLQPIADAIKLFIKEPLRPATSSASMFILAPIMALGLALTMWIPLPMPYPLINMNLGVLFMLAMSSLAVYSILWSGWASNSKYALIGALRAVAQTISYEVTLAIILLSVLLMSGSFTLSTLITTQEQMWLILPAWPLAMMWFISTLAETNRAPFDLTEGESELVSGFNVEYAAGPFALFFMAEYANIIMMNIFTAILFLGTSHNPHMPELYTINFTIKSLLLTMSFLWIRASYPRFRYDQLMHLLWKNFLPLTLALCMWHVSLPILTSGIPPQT
T1 sequence (P03898 whole entry partner): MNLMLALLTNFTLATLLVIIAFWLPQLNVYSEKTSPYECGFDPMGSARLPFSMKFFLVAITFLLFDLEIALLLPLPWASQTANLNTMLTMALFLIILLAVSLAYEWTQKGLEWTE
T1 sequence (P34943 36-380 partner): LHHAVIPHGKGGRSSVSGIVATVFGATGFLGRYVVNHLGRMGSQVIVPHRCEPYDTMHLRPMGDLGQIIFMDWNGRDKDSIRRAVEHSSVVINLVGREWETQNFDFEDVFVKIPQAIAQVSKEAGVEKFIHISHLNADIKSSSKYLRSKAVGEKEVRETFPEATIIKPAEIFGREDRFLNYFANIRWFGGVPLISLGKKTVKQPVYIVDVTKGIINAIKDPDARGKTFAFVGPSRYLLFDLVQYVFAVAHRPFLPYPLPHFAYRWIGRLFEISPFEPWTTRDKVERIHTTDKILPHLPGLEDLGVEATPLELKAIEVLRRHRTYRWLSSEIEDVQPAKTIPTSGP

[2] = target: T1, bovine mitochondrial complex I (proton-translocating NADH:ubiquinone oxidoreductase); experiment: NADH:Q1 oxidoreductase inhibition, SMP, NADH absorbance at […] nm; format: biochemical; details: neutral pH (7.0; Figure 7 caption gives NADH-oxidase reaction, A-form); SET buffer, 25 °C, 165 μM NADH; 5-7 min preincubation

How did the “kD → A at 20 μM EIPA” value [1] turn out when CCN(c1nc(N)c(C(=O)NC(=N)N)nc1Cl)C(C)C [EIPA] was run?
The value was 0.22 ± 0.04 min^− 1.

What about the IC50 [2] of the same compound?
The IC50 was about 40 µM.
